Each structure is given as a SMILES string. pIC50: −log10 of the molar value.

The first experiment deals with PARP1 (Homo sapiens, UniProt P09874). The experiment in a line: PARP1 biochemical DELFIA assay (auto-PARylation). The settings on record: Table 1.
PARP1, sequence (P09874 whole entry): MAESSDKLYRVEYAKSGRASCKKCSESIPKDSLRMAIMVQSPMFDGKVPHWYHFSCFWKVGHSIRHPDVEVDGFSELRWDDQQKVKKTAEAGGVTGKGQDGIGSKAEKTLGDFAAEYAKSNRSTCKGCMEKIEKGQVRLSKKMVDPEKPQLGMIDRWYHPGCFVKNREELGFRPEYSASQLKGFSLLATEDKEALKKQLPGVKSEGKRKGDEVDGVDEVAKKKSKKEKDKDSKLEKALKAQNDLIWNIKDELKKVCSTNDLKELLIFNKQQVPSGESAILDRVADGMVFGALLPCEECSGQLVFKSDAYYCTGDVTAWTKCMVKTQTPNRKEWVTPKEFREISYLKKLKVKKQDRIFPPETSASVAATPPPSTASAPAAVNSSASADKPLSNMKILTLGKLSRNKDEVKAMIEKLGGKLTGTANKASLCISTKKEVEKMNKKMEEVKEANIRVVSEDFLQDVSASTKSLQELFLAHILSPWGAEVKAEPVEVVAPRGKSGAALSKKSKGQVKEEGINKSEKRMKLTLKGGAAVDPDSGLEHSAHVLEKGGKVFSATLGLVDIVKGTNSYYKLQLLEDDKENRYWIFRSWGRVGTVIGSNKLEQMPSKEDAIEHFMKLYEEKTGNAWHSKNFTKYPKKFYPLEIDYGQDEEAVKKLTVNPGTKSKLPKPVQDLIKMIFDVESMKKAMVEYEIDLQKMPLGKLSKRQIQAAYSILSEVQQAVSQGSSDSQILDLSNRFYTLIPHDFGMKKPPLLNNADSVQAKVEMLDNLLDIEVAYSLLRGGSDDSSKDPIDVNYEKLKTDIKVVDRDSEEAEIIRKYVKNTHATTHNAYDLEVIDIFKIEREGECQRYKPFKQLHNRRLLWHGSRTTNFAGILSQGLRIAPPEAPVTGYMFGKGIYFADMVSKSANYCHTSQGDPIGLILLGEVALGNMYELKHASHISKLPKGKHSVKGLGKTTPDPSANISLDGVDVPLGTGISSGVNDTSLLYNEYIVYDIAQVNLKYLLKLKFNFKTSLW
Protocol: Prior to assay, wells were washed 3×5 min in coating wash buffer.
% data was fitted to a non-linear regression equation (log inhibitor vs response-variable slope 4-parameters) to obtain IC50 values.
In turn, `O=C(CCN1CCCC(c2cc(C(F)(F)F)c(=O)[nH]n2)C1)N1CCN(c2ncc(OC(F)(F)F)cn2)CC1` (single isomer, unassigned) [Compound 13a] gave a pIC50 of 6.00 to 7.00.
Still for that read-out and setting: next, `O=C(CCN1CCCC(c2cc(C(F)(F)F)c(=O)[nH]n2)C1)N1CCN(c2ccc(F)cn2)CC1` (single isomer, unassigned) [Compound 8a]: 6.00 to 7.00; `O=C(CCN1CCCC(c2cc(C(F)(F)F)c(=O)[nH]n2)C1)N1CCN(c2ccc(Cl)cn2)CC1` (single isomer, unassigned) [Compound 15b]: 6.00 to 7.00; `O=C(CCN1CCCC(c2cc(C(F)(F)F)c(=O)[nH]n2)C1)N1CCN(c2ncc(C(F)(F)F)cn2)CC1` (single isomer, unassigned) [Compound 1b, 6-(1-(3-oxo-3-(4-(5-(trifluoromethyl)pyrimidin-2-yl)piperazin-1-yl)propyl)piperidin-3-yl)-4-(trifluoromethyl)pyridazin-3(2H)-one]: 7.00 to 8.00.
On the same count and under the same terms, next, `O=C(CN1CCC(c2cc(C(F)(F)F)c(=O)[nH]n2)C1)N1CCN(c2ncc(C(F)(F)F)cn2)CC1` (racemic) [Compound 19rac]: 6.00 to 7.00; `O=C(CCN1CCCC(c2cc(C(F)(F)F)c(=O)[nH]n2)C1)N1CCN(c2ncc(C(F)(F)F)s2)CC1` (single isomer, unassigned) [Compound 27b]: 7.00 to 8.00.
For `O=C(CCN1CCCC(c2cc(C(F)(F)F)c(=O)[nH]n2)C1)N1CCN(c2ccc(F)cn2)CC1` (single isomer, unassigned) [Compound 8b], the pIC50 is 6.00 to 7.00.

The same experiment, now with this note: Table 1A.
Regarding `O=C(CN1CCCC1c1cc(C(F)(F)F)c(=O)[nH]n1)N1CCN(c2nc3ccc(F)cn3n2)CC1` (single isomer, unassigned) [Compound 128b], the pIC50 is 5.00 to 6.00.
Same read-out and setting: the same measure for `O=C(CN1CCCC1c1cc(C(F)(F)F)c(=O)[nH]n1)N1CCN(c2ncc(Cl)cc2Cl)CC1` (single isomer, unassigned) [Compound 125a]: 6.00 to 7.00; for `N#Cc1ccc2nc(N3CCN(C(=O)CN4CCCC4c4cc(C#N)c(=O)[nH]n4)CC3)oc2c1` (single isomer, unassigned) [Compound 145b]: below 5.00; for `Cc1[nH]c(=O)c(C(F)(F)F)cc1C1CCCN1CC(=O)N1CCN(c2ncc(C(F)(F)F)cn2)CC1` (single isomer, unassigned) [Compound 102a, 6-methyl-5-(1-(2-oxo-2-(4-(5-(trifluoromethyl)pyrimidin-2-yl)piperazin-1-yl)ethyl)pyrrolidin-2-yl)-3-(trifluoromethyl)pyridin-2(1H)-one]: 6.00 to 7.00.
With `O=C(CN1CCC(c2cc(C(F)(F)F)c(=O)[nH]n2)CC1)N1CCN(c2ncc(C(F)(F)F)cn2)CC1` [Compound 62], the pIC50 was 6.00 to 7.00.
On the same count and under the same terms, next, `O=C(CN1CCCC1c1cc(C(F)(F)F)c(=O)[nH]n1)N1CCN(c2cc(Cl)c(F)cn2)CC1` (single isomer, unassigned) [Compound 80b]: 7.00 to 8.00; `O=C(CN1CCCC1c1c[nH]c(=O)c(C(F)(F)F)c1)N1CCN(c2ncc(C(F)(F)F)cn2)CC1` (single isomer, unassigned) [Compound 60a, 5-(1-(2-oxo-2-(4-(5-(trifluoromethyl)pyrimidin-2-yl)piperazin-1-yl)ethyl)pyrrolidin-2-yl)-3-(trifluoromethyl)pyridin-2(1H)-one]: 7.00 to 8.00; `O=C(CN1CCCC1c1cc(C(F)(F)F)c(=O)[nH]n1)N1CCN(c2ccc(C(F)(F)F)cn2)CC1` (single isomer, unassigned) [Compound 42a]: 5.00 to 6.00.
Still for that read-out and setting: next, `N#Cc1cc(C2CCCN2CC(=O)N2CCN(c3nc4cc(Cl)ccc4o3)CC2)n[nH]c1=O` (single isomer, unassigned) [Compound 121b]: 5.00 to 6.00.
On the same count and under the same terms, the same measure for `O=C(CN1CCCC1c1c[nH]c(=O)c(Cl)c1)N1CCN(c2ncc(C(F)(F)F)cn2)CC1` (single isomer, unassigned) [Compound 78b, 3-chloro-5-(1-(2-oxo-2-(4-(5-(trifluoromethyl)pyrimidin-2-yl)piperazin-1-yl)ethyl)pyrrolidin-2-yl)pyridin-2(1H)-one]: below 5.00; for `O=C(CN1CCCC1c1c[nH]c(=O)c(Cl)c1)N1CCN(c2ncc(C(F)(F)F)cn2)CC1` (single isomer, unassigned) [Compound 78a, 3-chloro-5-(1-(2-oxo-2-(4-(5-(trifluoromethyl)pyrimidin-2-yl)piperazin-1-yl)ethyl)pyrrolidin-2-yl)pyridin-2(1H)-one]: 6.00 to 7.00; for `O=C(CN1CCC(c2n[nH]c(=O)c3ccccc23)CC1)N1CCN(c2ncc(C(F)(F)F)cn2)CC1` [Compound 51]: 7.00 to 8.00.
The compound `CNC(=O)c1ccc(N2CCN(C(=O)CN3CCCC3c3cc(C(F)(F)F)c(=O)[nH]n3)CC2)nc1` (single isomer, unassigned) [Compound 55a] showed a pIC50 of 5.00 to 6.00.
Still for that read-out and setting: next, `O=C(CN1CCCC1c1cc(C(F)(F)F)c(=O)[nH]n1)N1CCN(c2ncc(Cl)cn2)CC1` (single isomer, unassigned) [Compound 35b]: 5.00 to 6.00.
On the same count and under the same terms, the same measure for `CC1(C)CC(c2cc(C(F)(F)F)c(=O)[nH]n2)N(CC(=O)N2CCN(c3ncc(C(F)(F)F)cn3)CC2)C1` (single isomer, unassigned) [Compound 94b]: 5.00 to 6.00; for `O=C(CN1CCCC1c1n[nH]c(=O)c2ccccc12)N1CCN(c2ncc(C(F)(F)F)cn2)CC1` (single isomer, unassigned) [Compound 38a, 4-(1-(2-oxo-2-(4-(5-(trifluoromethyl)pyrimidin-2-yl)piperazin-1-yl)ethyl)pyrrolidin-2-yl)phthalazin-1(2H)-one]: 6.00 to 7.00; for `CNC(=O)c1ccc(N2CCN(C(=O)CCN3CCCC3c3c[nH]c(=O)c(C(F)(F)F)c3)CC2)cn1` (single isomer, unassigned) [Compound 73b]: 5.00 to 6.00.
Compound `O=C(CN1CCCC1c1cc(C(F)(F)F)c(=O)[nH]n1)N1CCN(c2ncc(OC(F)(F)F)cn2)CC1` (single isomer, unassigned) [Compound 72b] had a pIC50 of at least 8.00.
For `COC1CC(c2cc(C(F)(F)F)c(=O)[nH]n2)N(CC(=O)N2CCN(c3ncc(C(F)(F)F)cn3)CC2)C1` (single isomer, unassigned) [Compound 138trans2, 6-(4-methoxy-1-(2-oxo-2-(4-(5-(trifluoromethyl)pyrimidin-2-yl)piperazin-1-yl)ethyl)pyrrolidin-2-yl)-4-(trifluoromethyl)pyridazin-3(2H)-one], the negative logarithm of the IC50 (pIC50) is below 5.00.
On the same count and under the same terms, next, `O=C(CN1CCCC1c1cc(C(F)(F)F)c(=O)[nH]n1)C1CCN(c2ncc(C(F)(F)F)cn2)CC1` (single isomer, unassigned) [Compound 75b]: below 5.00; `O=C(CN1CCCC1c1cc(C(F)(F)F)c(=O)[nH]n1)N1CCN(c2ncc(C(F)(F)F)s2)CC1` (racemic) [Compound 52rac]: at least 8.00; `O=C(CN1CC(F)(F)C[C@H]1c1cc(C(F)(F)F)c(=O)[nH]n1)N1CCN(c2ncc(C(F)(F)F)cn2)CC1` [Compound 91b, (S)-6-(4,4-difluoro-1-(2-oxo-2-(4-(5-(trifluoromethyl)pyrimidin-2-yl)piperazin-1-yl)ethyl)pyrrolidin-2-yl)-4-(trifluoromethyl)pyridazin-3(2H)-one]: 5.00 to 6.00.
`O=C(CN1CCCC1c1c[nH]c(=O)c(C(F)(F)F)c1)N1CCN(c2ncc(Cl)cn2)CC1` (single isomer, unassigned) [Compound 74b] gave a pIC50 of 5.00 to 6.00.
On the same count and under the same terms, the same measure for `CNC(=O)c1ccc(N2CCN(C(=O)CN3CCCC3c3cc(C(F)(F)F)c(=O)[nH]n3)CC2)nc1` (single isomer, unassigned) [Compound 55b]: 6.00 to 7.00; for `O=C(CN1CCCC1c1cc(C(F)(F)F)c(=O)[nH]n1)N1CCN(c2ncc(F)cc2F)CC1` (single isomer, unassigned) [Compound 83a]: 6.00 to 7.00.
Same read-out and setting: the same measure for `O=C(CN1CCCC1c1cc(C(F)(F)F)c(=O)[nH]n1)N1CCN(c2ncc(OC(F)F)cn2)CC1` (single isomer, unassigned) [Compound 118a]: at least 8.00.
The same measure, in the same setting: the same measure for `O=C(CN1CCN(c2ncc(C(F)(F)F)cn2)CC1)N1CCCC1c1c[nH]c(=O)c(C(F)(F)F)c1` (single isomer, unassigned) [Compound 63a]: 7.00 to 8.00.
With `O=C(CN1CCCC1c1cc(C(F)(F)F)c(=O)[nH]n1)N1CCN(c2ccc(F)cn2)CC1` (single isomer, unassigned) [Compound 46a], the pIC50 is 7.00 to 8.00.
The same measure, in the same setting: next, `O=C(CN1CCCC1c1cc(C(F)(F)F)c(=O)[nH]n1)N1CCN(c2ncc(C3CC3)cn2)CC1` (single isomer, unassigned) [Compound 69b]: 5.00 to 6.00.
Still for that read-out and setting: the same measure for `O=C(CCN1CCC(c2n[nH]c(=O)c3ccccc23)CC1)N1CCN(c2ncc(C(F)(F)F)cn2)CC1` [Compound 49]: 7.00 to 8.00; for `CCc1[nH]c(=O)c(C(F)(F)F)cc1C1CCCN1CC(=O)N1CCN(c2ncc(C(F)(F)F)cn2)CC1` (single isomer, unassigned) [Compound 105b]: 5.00 to 6.00; for `CC(C)(C)c1cnc(N2CCN(C(=O)CN3CCCC3c3cc(C(F)(F)F)c(=O)[nH]n3)CC2)nc1` (single isomer, unassigned) [Compound 82b]: 5.00 to 6.00.
Same read-out and setting: next, `O=C(CN1CCCC1c1cc(C2CC2)c(=O)[nH]n1)N1CCN(c2ncc(C(F)(F)F)cn2)CC1` (racemic) [Compound 65rac]: 7.00 to 8.00; `O=C(CCN1CC2(c3cc(C(F)(F)F)c(=O)[nH]n3)CC1C2)N1CCN(c2ncc(C(F)(F)F)cn2)CC1` [Compound 103]: 6.00 to 7.00; `N#Cc1ccc2oc(N3CCN(C(=O)CN4CCCC4c4cc(C(F)(F)F)c(=O)[nH]n4)CC3)nc2c1` (single isomer, unassigned) [Compound 100b]: 6.00 to 7.00.
The compound `O=C(CN1CC(F)(F)C[C@@H]1c1cc(C(F)(F)F)c(=O)[nH]n1)N1CCN(c2ncc(C(F)(F)F)cn2)CC1` [Compound 91a, (R)-6-(4,4-difluoro-1-(2-oxo-2-(4-(5-(trifluoromethyl)pyrimidin-2-yl)piperazin-1-yl)ethyl)pyrrolidin-2-yl)-4-(trifluoromethyl)pyridazin-3(2H)-one] gave a negative logarithm of the IC50 (pIC50) of 6.00 to 7.00.
On the same count and under the same terms, the same measure for `Cn1c(N2CCN(C(=O)CN3CCCC3c3cc(C(F)(F)F)c(=O)[nH]n3)CC2)nc2ccccc21` (single isomer, unassigned) [Compound 97b]: 5.00 to 6.00.

In general, pIC50 refers to the IC50 on a negative log10 scale, so that one unit is a factor of ten. High values mean a low IC50, low ones a high IC50.
